Measured values published in patent US5668144A, “1-azabicyclopheptane derivatives” (American Home Products Corporation, priority 1996, dated 1997).

Tests used:
[1] = target: T1, M1 acetylcholine receptors (Homo sapiens, UniProt P11229); test: PI hydrolysis stimulation in CHO cells expressing M1 acetylcholine receptors (muscarinic m1 agonism); assay type: cell-based; details: exo versus endo azacycloheptane analog
T1 sequence (P11229 1-460): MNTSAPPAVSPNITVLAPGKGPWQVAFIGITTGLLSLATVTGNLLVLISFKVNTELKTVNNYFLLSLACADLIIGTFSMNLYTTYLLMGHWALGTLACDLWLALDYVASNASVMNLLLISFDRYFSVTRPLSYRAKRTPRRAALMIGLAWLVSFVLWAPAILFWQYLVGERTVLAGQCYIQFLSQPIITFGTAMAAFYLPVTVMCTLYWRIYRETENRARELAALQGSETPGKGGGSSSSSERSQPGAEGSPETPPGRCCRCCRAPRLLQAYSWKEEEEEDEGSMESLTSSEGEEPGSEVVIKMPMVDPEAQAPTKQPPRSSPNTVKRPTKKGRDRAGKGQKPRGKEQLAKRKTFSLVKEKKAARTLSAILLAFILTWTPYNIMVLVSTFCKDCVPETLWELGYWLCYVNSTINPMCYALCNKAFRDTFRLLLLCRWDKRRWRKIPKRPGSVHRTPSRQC

[2] = system: scopolamine disrupted rat performance; test: Eight arm radial maze, reversal of scopolamine disrupted rat performance; assay type: in vivo, Sprague-Dawley male rats; details: ip, test compound i.p., scopolamine HBr 0.3 mg/kg s.c., read-out: minimum effective dose (MED), reversal of scopolamine disrupted rat performance
Description: The compound of Example 3 was also tested in the eight arm radial maze test procedure in which Sprague-Dawley male rats at 85% of their free feeding weight are trained to obtain two food pellets from food cups placed at the ends of four of the eight arms radiating from a circular central area of the maze, in a five minute period. After training to a level of error (return to a previously entered arm is error) equal to or less than 2, the rats performance is disrupted with scopolamine HBr (0.3 mg/kg, s.c.) and test compound dosage (i.p.). The number of errors are then determined and compared with control receiving scopolamine alone.

[3] = system: scopolamine treated animals; test: Reversal of scopolamine hyperactivity, mouse swim tank test; assay type: in vivo, Male CFW mice; details: ip, scopolamine HBr 0.3 mg/kg, read-out: minimum effective dose (MED), reversal of hyperactivity of scopolamine treated animals
Description: The compound of Example 3, representative of the other compounds of this invention, was also tested in accordance with the procedure of Symons et al, Soc. Neuroscience Abstracts 12:2, 897 (1986) in which Male CFW mice, 25 to 35 grams in weight are given the test compound in suitable vehicle plus 0.3 mg/kg scopolamine. HBr in suitable vehicle, i.p.(3 groups of 12 animals each) or vehicle alone (1 group of 12 animals ) or vehicle plus scopolamine. HBr (1 group of 12 animals). The mice are placed in a swim tank, individually, containing 10 cm H2 O for a period of 5 minutes and the distance each animal swims is recorded.

[4] = in vivo; cited from earlier work
[5] = system: patients with mild to moderate Alzheimer's Disease; details: cited from earlier work; for memory in patients (in words): mild to moderate Alzheimer's Disease
[6] = quaternary ammonium group; cited from earlier work
[7] = system: muscarinic receptors; details: disclosed in earlier patents; cited from earlier work
[8] = system: m1 receptors; details: cited from earlier work

CNC(=O)O[C@@H]1CN2CC[C@@H]1C2 (relative stereo) [Example 1, (exo)-Methylcarbamic acid 1-aza-bicyclo[2.2.1]hept-3-yl ester]
muscarinic agonism (in words) [1]: enhanced muscarinic agonism

CNC(=O)O[C@@H]1CN2CC[C@H]1C2 (relative stereo) [endo azacycloheptane analog]
muscarinic agonism (in words) [1]: not

CNC(=O)O[C@@H]1CN2CC[C@@H]1C2 (single isomer, unassigned) [Example 2, (+)-(exo)-Methylcarbamic acid 1-aza-bicyclo[2.2.1]hept-3-yl ester]
minimal effective dose [2]: 1 mg/kg

CNC(=O)O[C@@H]1CN2CC[C@@H]1C2 (single isomer, unassigned) [Example 3, (-)-(exo)-Methylcarbamic acid 1-aza-bicyclo[2.2.1]hept-3-yl ester]
minimal effective dose [3]: 30 mg/kg

COC(=O)C1=CCCN(C)C1 [Arecoline]
half-life (in words) [4]: short | memory in patients (in words) [5]: memory improvement

C[N+](C)(C)CCOC(N)=O [carbachol]
ability to enter the CNS (in words) [6]: not able to enter the CNS

CNC(=O)OC1CN2CCCC1C2 (stereo not drawn) [exo-1-azabicyclo[3.2.1]oct-6-yl-N-methylcarbamate]
muscarinic activity (in words) [7]: muscarinic activity

CN(C)C(=O)OC1CC2CCCN(C2)C1 (stereo not drawn) [exo-1-azabicyclo[3.3.1]non-3-yl-N,N-dimethylcarbamate]
muscarinic activity (in words) [7]: muscarinic activity

CNC(=O)OC1CC2CCCN(C2)C1 (stereo not drawn) [exo-1-azabicyclo[3.3.1]non-3-yl-N-methylcarbamate]
muscarinic activity (in words) [7]: muscarinic activity

C[C@@H]1O[C@H](C[N+](C)(C)C)C[C@H]1O [muscarine]
activation of m1 receptors (in words) [8]: able to fully activate m1 receptors | ability to enter the CNS (in words) [6]: not able to enter the CNS

Nc1c2c(nc3ccccc13)CCCC2 [tacrine]
adverse side effects (in words) ([5]; especially at the higher doses where it is most effective): adverse side effects especially at the higher doses | memory in patients (in words) [5]: improvement in memory
